Assay results taken from patent US4472304A, “(Amido)N-substituted bleomycins, salts thereof and process for preparation thereof” (Nippon Kayaku Kabushiki Kaisha, priority 1981, dated 1984).

How the values were obtained:
[1] = tested on: Mycobacterium smegmatis ATCC 607; assay: Antimicrobial activity against Mycobacterium smegmatis ATCC 607 (agar plate-cylinder); format: cell-based; settings: standard bleomycin A2 (copper-free) assumed 1,000 mcg potency/mg
Procedure: (§1) 2. ANT[…] MYC[…] ATCC 607 AND BACILLUS SUBTILIS
(§2) The antimicrobial activity was tested against the captioned test organisms by the method of agar plate-cylinder. The activity was recorded on the assumption that the activity of standard sample of bleomycin A2 (copper-free form) is 1,000 mcg poteney/mg.

Bacillus subtilis = assay: Antimicrobial activity against Bacillus subtilis (agar plate-cylinder); format: cell-based; settings: standard bleomycin A2 (copper-free) assumed 1,000 mcg potency/mg
Procedure: as §1, §2

Compound	Antimicrobial potency of Cu-free compound against Mycobacterium smegmatis ATCC 607 [1]	Antimicrobial potency of Cu-free compound against Bacillus subtilis (Bacillus subtilis)
Cc1c(N)nc(C(CC(N)=O)NCC(N)C(=O)NCc2ccc(Cl)cc2)nc1C(=O)NC(C(=O)NC(C)C(O)C(C)C(=O)NC(C(=O)NCCc1nc(-c2nc(C(=O)NCCCNC(C)c3ccccc3)cs2)cs1)C(C)O)C(OC1OC(CO)C(O)C(O)C1OC1OC(CO)C(O)C(OC(N)=O)C1O)c1cnc[nH]1 [Compound 24, 3-((S)-1'-phenylethyl)aminopropylamino-(amido)N--[p-chlorobenzyl]-BLM]	56328 mcg potency/mg	1184 mcg potency/mg
CCCCCCCCCCCCCCCCCCNC(=O)C(N)CNC(CC(N)=O)c1nc(N)c(C)c(C(=O)NC(C(=O)NC(C)C(O)C(C)C(=O)NC(C(=O)NCCc2nc(-c3nc(C(=O)NCCCNC(C)c4ccccc4)cs3)cs2)C(C)O)C(OC2OC(CO)C(O)C(O)C2OC2OC(CO)C(O)C(OC(N)=O)C2O)c2cnc[nH]2)n1 [Compound 25, 3-((S)-1'-phenylethylamino)propylamino-(amido)N--[stearyl]-BLM]	210 mcg potency/mg	0 mcg potency/mg
CCCCCCCCCCCCNC(=O)C(N)CNC(CC(N)=O)c1nc(N)c(C)c(C(=O)NC(C(=O)NC(C)C(O)C(C)C(=O)NC(C(=O)NCCc2nc(-c3nc(C(=O)NCCCNC(C)c4ccccc4)cs3)cs2)C(C)O)C(OC2OC(CO)C(O)C(O)C2OC2OC(CO)C(O)C(OC(N)=O)C2O)c2cnc[nH]2)n1 [Compound 26, 3-((S)-1'-phenylethylamino)propylamino-(amido)N--[lauryl]-BLM]	3920 mcg potency/mg	384 mcg potency/mg
CCCCCCCCNC(=O)C(N)CNC(CC(N)=O)c1nc(N)c(C)c(C(=O)NC(C(=O)NC(C)C(O)C(C)C(=O)NC(C(=O)NCCc2nc(-c3nc(C(=O)NCCCNC(C)c4ccccc4)cs3)cs2)C(C)O)C(OC2OC(CO)C(O)C(O)C2OC2OC(CO)C(O)C(OC(N)=O)C2O)c2cnc[nH]2)n1 [Compound 27, 3-((S)-1'-phenylethylamino)propylamino-(amido)N--[octyl]-BLM]	45100 mcg potency/mg	886 mcg potency/mg
COc1ccc2[nH]cc(CCNC(=O)C(N)CNC(CC(N)=O)c3nc(N)c(C)c(C(=O)NC(C(=O)NC(C)C(O)C(C)C(=O)NC(C(=O)NCCc4nc(-c5nc(C(=O)NCCCNC(C)c6ccccc6)cs5)cs4)C(C)O)C(OC4OC(CO)C(O)C(O)C4OC4OC(CO)C(O)C(OC(N)=O)C4O)c4cnc[nH]4)n3)c2c1 [Compound 28, 3-((S)-1'-phenylethylamino)propylamino-(amido)N--[5-methyoxyindol-3-ylethyl]-BLM]	18650 mcg potency/mg	586 mcg potency/mg
Cc1c(N)nc(C(CC(N)=O)NCC(N)C(=O)NCCCCCCCCCCCCN)nc1C(=O)NC(C(=O)NC(C)C(O)C(C)C(=O)NC(C(=O)NCCc1nc(-c2nc(C(=O)NCCCNC(C)c3ccccc3)cs2)cs1)C(C)O)C(OC1OC(CO)C(O)C(O)C1OC1OC(CO)C(O)C(OC(N)=O)C1O)c1cnc[nH]1 [Compound 29, 3-((S)-1'-phenylethylamino)propylamino-(amido)N--[do-decanyl]-BLM]	14200 mcg potency/mg	5400 mcg potency/mg
Cc1c(N)nc(C(CC(N)=O)NCC(N)C(=O)NC(Cc2ccccc2)c2ccccc2)nc1C(=O)NC(C(=O)NC(C)C(O)C(C)C(=O)NC(C(=O)NCCc1nc(-c2nc(C(=O)NCCCNC(C)c3ccccc3)cs2)cs1)C(C)O)C(OC1OC(CO)C(O)C(O)C1OC1OC(CO)C(O)C(OC(N)=O)C1O)c1cnc[nH]1 [Compound 30, 3-((S)-1'-phenylethylamino)propylamino-(amido)N--[1',2'-diphenyl-ethyl]-BLM]	33802 mcg potency/mg	190 mcg potency/mg
Cc1c(N)nc(C(CC(N)=O)NCC(N)C(=O)NC(c2ccccc2)c2ccccc2)nc1C(=O)NC(C(=O)NC(C)C(O)C(C)C(=O)NC(C(=O)NCCc1nc(-c2nc(C(=O)NCCCNC(C)c3ccccc3)cs2)cs1)C(C)O)C(OC1OC(CO)C(O)C(O)C1OC1OC(CO)C(O)C(OC(N)=O)C1O)c1cnc[nH]1 [Compound 31, 3-((S)-1'-phenylethylamino)propylamino-(amido)N--[diphenylmethyl]-BLM]	54645 mcg potency/mg	430 mcg potency/mg
Cc1c(N)nc(C(CC(N)=O)NCC(N)C(=O)NC2CCN(Cc3ccccc3)CC2)nc1C(=O)NC(C(=O)NC(C)C(O)C(C)C(=O)NC(C(=O)NCCc1nc(-c2nc(C(=O)NCCCNC(C)c3ccccc3)cs2)cs1)C(C)O)C(OC1OC(CO)C(O)C(O)C1OC1OC(CO)C(O)C(OC(N)=O)C1O)c1cnc[nH]1 [Compound 35, 3-((S)-1'-phenylethylamino)propylamino-(amido)N--[N--benzyl-piperazin-4-yl]-BLM]	18537 mcg potency/mg	2159 mcg potency/mg
CCCCCCCCNC(=O)C(N)CNC(CC(N)=O)c1nc(N)c(C)c(C(=O)NC(C(=O)NC(C)C(O)C(C)C(=O)NC(C(=O)NCCc2nc(-c3nc(C(=O)NCCCN(C)CCCNCc4ccc(Cl)cc4)cs3)cs2)C(C)O)C(OC2OC(CO)C(O)C(O)C2OC2OC(CO)C(O)C(OC(N)=O)C2O)c2cnc[nH]2)n1 (centres unmarked) [Compound 40, 3-{N--methyl-N--[3-(p-chlorobenzyl)aminopropyl]amino}-propylamino-(amido)N--[octyl]-BLM]	38200 mcg potency/mg	1808 mcg potency/mg
Cc1c(N)nc(C(CC(N)=O)NCC(N)C(=O)NC(Cc2ccccc2)c2ccccc2)nc1C(=O)NC(C(=O)NC(C)C(O)C(C)C(=O)NC(C(=O)NCCc1nc(-c2nc(C(=O)NCCCN(C)CCCNCc3ccc(Cl)cc3)cs2)cs1)C(C)O)C(OC1OC(CO)C(O)C(O)C1OC1OC(CO)C(O)C(OC(N)=O)C1O)c1cnc[nH]1 (centres unmarked) [Compound 41, 3-{N--methyl-N--[3-(p-chlorobenzyl)aminopropyl]amino}propyl-amino-(amido)N--[1,2-diphenylethyl]-BLM]	23342 mcg potency/mg	521 mcg potency/mg
Cc1c(N)nc(C(CC(N)=O)NCC(N)C(=O)NC(C)CCCC(C)C)nc1C(=O)NC(C(=O)NC(C)C(O)C(C)C(=O)NC(C(=O)NCCc1nc(-c2nc(C(=O)NCCCN(C)CCCNCc3ccc(Cl)cc3)cs2)cs1)C(C)O)C(OC1OC(CO)C(O)C(O)C1OC1OC(CO)C(O)C(OC(N)=O)C1O)c1cnc[nH]1 (centres unmarked) [Compound 42, 3-{N--methyl-N--[3-(p-chlorobenzyl)aminopropyl]amino}propyl-amino-(amido)N--[1,5-dimethylhexyl]-BLM]	31834 mcg potency/mg	933 mcg potency/mg
CCCCCCCCNC(=O)C(N)CNC(CC(N)=O)c1nc(N)c(C)c(C(=O)NC(C(=O)NC(C)C(O)C(C)C(=O)NC(C(=O)NCCc2nc(-c3nc(C(=O)NCCCN(C)CCCNCCc4ccc(Cl)cc4)cs3)cs2)C(C)O)C(OC2OC(CO)C(O)C(O)C2OC2OC(CO)C(O)C(OC(N)=O)C2O)c2cnc[nH]2)n1 (centres unmarked) [Compound 44]	38750 mcg potency/mg	1898 mcg potency/mg
CCCCN(CCCC)CCCNC(=O)C(N)CNC(CC(N)=O)c1nc(N)c(C)c(C(=O)NC(C(=O)NC(C)C(O)C(C)C(=O)NC(C(=O)NCCc2nc(-c3nc(C(=O)NCCCN(C)CCCNCCc4ccc(Cl)cc4)cs3)cs2)C(C)O)C(OC2OC(CO)C(O)C(O)C2OC2OC(CO)C(O)C(OC(N)=O)C2O)c2cnc[nH]2)n1 (centres unmarked) [Compound 46, 3-{N--methyl-N--[3-(2-(p-chlorophenyl)ethyl)aminopropyl]amino}-propylamino-(amido)N--[3-(di-n-butylamino)propyl]-BLM]	31690 mcg potency/mg	3690 mcg potency/mg
CCCCNCCCN(C)CCCNC(=O)C(N)CNC(CC(N)=O)c1nc(N)c(C)c(C(=O)NC(C(=O)NC(C)C(O)C(C)C(=O)NC(C(=O)NCCc2nc(-c3nc(C(=O)NCCC[N+](C)(CCCN(Cc4ccccc4)Cc4ccccc4)Cc4ccccc4)cs3)cs2)C(C)O)C(OC2OC(CO)C(O)C(O)C2OC2OC(CO)C(O)C(OC(N)=O)C2O)c2cnc[nH]2)n1 (centres unmarked) [Compound 50, 3-{N--methyl-N--benzyl-N--[3-(dibenzylamino)propyl]amino}-propylamino-(amido)N--[3-[N--methyl-N--(3-n-butylaminopropyl)]-aminopropyl]-BLM]	1417 mcg potency/mg	376 mcg potency/mg
CCCCN(CCCC)CCCNC(=O)C(N)CNC(CC(N)=O)c1nc(N)c(C)c(C(=O)NC(C(=O)NC(C)C(O)C(C)C(=O)NC(C(=O)NCCc2nc(-c3nc(C(=O)NCCCN(C)CCCNCc4ccc(C#N)cc4)cs3)cs2)C(C)O)C(OC2OC(CO)C(O)C(O)C2OC2OC(CO)C(O)C(OC(N)=O)C2O)c2cnc[nH]2)n1 (centres unmarked) [Compound 61, 3-{N--methyl-N--[3-(p-cyanobenzylamino)propyl]amino}-propylamino-(amido)N--[3-(di-n-butylamino)propyl]-BLM]	14730 mcg potency/mg	4755 mcg potency/mg
